From article PMC9750872, “Ras-mutant cancers are sensitive to small molecule inhibition of V-type ATPases in mice” (Nature biotechnology, 2022)
“Also recorded” adds a separate entry of the source.

Legend:
Yeast V-ATPase = target: T1, Yeast V-ATPase (Saccharomyces cerevisiae, UniProt P25515+P41807); assay: Biochemical V-ATPase (ATP hydrolysis) assay
T1 construct: V-ATPase was purified as described previously from yeast[82] using the detergent dodecylmaltoside; endogenous in cells; host or cells: yeast
Protocol: V-ATPase was purified as described previously from yeast[82] using the detergent dodecylmaltoside and porcine kidney[83] using the detergent glycol-diosgenin. ATPase assays with purified V-ATPase were performed as described previously. 249C (mammalian: 0.1, 1, 10, 100 μM and yeast: 5, 10 and 100 μM) or BafA1 (1 μM) were added to the reaction and compared with a negative control to which only DMSO was added. Enzyme-coupled ATPase biochemical activity assays were performed in a 96-well plate as described previously. […]
appears to cause accumulation of high molecular weight entities. Representative of 3 independent experiments. […]
observed. Data shown are mean ± SD ( n = 3) Two-tailed student’s t-test (C) ATP-dependent fluorescence quenching in yeast (me an ± SD; n = 3 ) Two-t ailed student’s t-test (D) SDS PAGE over th e cou rse of recombinant human ATP6V1H protein purification. 1. Mark ers; 2. Total l ysate (GST-fusion […]); 3. Soluble lysate; 4.
GSTrap flow-through; 5. GSTrap elute; 6. Post thrombin cleavage (target 54 kDa, GST 25 kDa); 7. Subtractive GSTrap flow -through; 8. Markers; 9. Final sample, 1 µg protein load. Repres entative of 2 independent ex periments. (E) Structure of biotin- 249C. […]
interfere with V-ATPas e binding. ( F) Experimental schematic of Bio-la yer inferometr y (B L I) .
(1 picture or pasted object on this page, not shown here)

[1] = system: V-ATPase-dependent proton transport in HEK293T cells; assay: Proton pumping assay, FITC-Dextran-loaded lysosomes; assay type: cell-based, human; details: 1 h treatment
Text: Figure 4. […] (A) Model of the reversible assembly of V-ATPase. Cytosolic V1 subunits are depicted in blue and membrane Vo subunits in purple. Upon V-ATPase assembly, ATP is hydrolyzed to ADP accompanied by proton (H^+) pumping and luminal acidification (decrease in pH) (Created with BioRender). […] The amount of subunit B2 present in the membrane fraction indicates the amount of assembled V-ATPase. A representative Western blot is presented. […] Cells were mechanically lysed, and a fraction containing FITC-Dextran-loaded lysosomes was isolated by sedimentation centrifugation. Fluorescence was measured over time to assess pH-dependent quenching following addition of 1 mM magnesium-ATP (predetermined). […] Representative of 5 individual experiments with n = 3 for each is presented (mean ± SD) (D) Mammalian V-ATPase activity measured in the absence and presence of 1 μM 249C and 1 μM BafA1. Data shown are mean ± SD; n = 3. […]
4 × 10^6 HEK 293T cells were plated in 10-cm plates. […] Sample fluorescence was excited at 490 nm, and emission fluorescence at 520 nm was measured continuously in BioTek plate reader (Synergy) using Gen5 software (version 3.05). After initial fluorescence stabilization, 1 mM ATP and 2 mM MgCl2 were added to initiate ATPase activity and proton pumping into the lysosomes, which causes quenching of FITC in the lysosomal lumen. […]

[2] = system: NSCLC A549 (KRASG12S) xenografts; assay: A549 lung cancer xenograft; assay type: in vivo; details: 10 mg/kg twice daily i.p.
Protocol: Finally, to test whether 249C could inhibit autophagy and attenuate the growth of mutant KRAS-dependent cancers as a single agent in vivo, we evaluated 249C in a mouse xenograft model of lung cancer (NSCLC, A549). Briefly, we injected mutant KRAS A549 (G12S) cells into the flanks of athymic mice to establish xenografts, randomly assigned mice to vehicle control (n = 7) or 249C-recipient groups (n = 7, 10 mg/kg) with twice daily i.p. injections, and recorded tumor volume and body weight over time. […] We subsequently sacrificed all mice and excised their tumors for further investigation.
5 × 10^6 A549 cells were subcutaneously injected into the lower left flank of 6–8-week old athymic nude female mice (Charles River strain # 088, homozygous NU/NU). To assess establishment of tumors, mice were examined 5 days post-inoculation and were randomly segregated into two treatment groups [vehicle control, 10 mg/kg 249C IP, n = 7 per group] and were treated twice daily with the drug in NPM or vehicle control (5% weight aqueous solution of carboxymethyl cellulose). Tumor volumes were calculated using the formula (L × W × H)/2 with recorded caliper measurements. Survival curves and statistical analyses were performed using Excel. Animals were maintained on a standard chow diet; 12:12 dark/light cycle and in group housing in hepa-filtered cages. All animal procedures were performed under IACUC approved protocols and guidelines. Animals from both groups were weighed every 3 days. Plasma concentration was measured from blood collected using standard and established protocols.

MEFs KRAS G12D = assay: Cell proliferation of Ras-less MEFs expressing human KRAS/BRAF; details: Mus musculus
Protocol: (§1) Logarithmically growing cells were plated in antibiotic-free medium supplemented with 2% fetal bovine serum at a density of 5,000 cells per well. The next day, cells were treated in triplicates with increasing doses of in-house small molecule inhibitor drugs and a DMSO vehicle control for 3 days and subsequently assessed for cell viability by measurement of ATP with CellTiter-Glo Luminescent Cell Viability Assay (Promega). Signal intensity was read on a Glomax™ 96 Microplate Luminometer (Promega) with GLOMAX software (version 1.9.3) and percent cell survival was calculated based on the reading of vehicle control cells set as 100% using Excel (2012) and GraphPad Prism (version 6)Each compound was tested a minimum of 2 times with n = 3. All cell proliferation assays (cancer cell lines or MEFs) were done in a similar way.

MEFs KRAS G12C = assay: as above; details: Mus musculus
Protocol: as §1

T1 sequence (P25515 whole entry): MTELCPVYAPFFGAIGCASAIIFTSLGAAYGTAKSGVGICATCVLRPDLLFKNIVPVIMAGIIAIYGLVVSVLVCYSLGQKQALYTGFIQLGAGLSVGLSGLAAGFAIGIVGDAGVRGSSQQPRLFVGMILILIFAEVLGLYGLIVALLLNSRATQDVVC
T1 sequence (P41807 2-478): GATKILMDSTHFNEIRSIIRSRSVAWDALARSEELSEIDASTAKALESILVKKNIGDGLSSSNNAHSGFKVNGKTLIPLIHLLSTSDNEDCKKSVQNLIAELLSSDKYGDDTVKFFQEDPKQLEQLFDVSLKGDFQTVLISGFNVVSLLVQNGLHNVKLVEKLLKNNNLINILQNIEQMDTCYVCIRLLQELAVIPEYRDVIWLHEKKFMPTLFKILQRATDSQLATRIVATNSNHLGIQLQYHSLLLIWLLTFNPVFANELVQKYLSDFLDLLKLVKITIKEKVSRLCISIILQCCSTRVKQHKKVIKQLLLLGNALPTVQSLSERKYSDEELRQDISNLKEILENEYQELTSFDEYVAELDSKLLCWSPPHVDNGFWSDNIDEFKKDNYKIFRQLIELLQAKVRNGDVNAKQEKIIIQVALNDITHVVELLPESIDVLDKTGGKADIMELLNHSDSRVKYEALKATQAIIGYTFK

CN1CCOC(CNC(=O)C2(C)C(c3ccc(Cl)o3)C(c3ccc(F)cc3F)=NN2c2ccc(F)cc2F)C1 (stereo not shown) [Compound 249C]
Yeast V-ATPase activity (Yeast V-ATPase): modest inhibition
V-ATPase-dependent proton transport (ATP-dependent fluorescence quenching) [1]: inhibited V-ATPase-dependent proton transport; also recorded: ATP-dependent fluorescence quenching was not observed
tumor volume vs vehicle ([2]; athymic mice): significantly lower
tumor mass vs vehicle ([2]; end point): lower
tissue weight of treated mice vs vehicle ([2]; mice bearing A549 xenografts): No significant difference in tissue weight
IC50 (MEFs KRAS G12D): 300 nM
IC50 (MEFs KRAS G12C): 440 nM
